Key:
human RAGE [1] = molecular target: T1, human RAGE (Homo sapiens, UniProt Q15109); experiment: RAGE antagonist activity of reaction samples (37° C., 42 days) mixed with AGE-BSA, NF-κB luciferase assay in C6 glioma cells; format: cell-based, rat C6 glioma cells expressing human RAGE
T1 construct: human RAGE plasmid (including full-length human RAGE cDNA); expressed in transfected cells; host or cells: C6 glioma cells carrying pNF-κB-Luc plasmid and human RAGE plasmid
Procedure: (§1) Amino acid, carbohydrates and a phosphate buffer solution were charged in a 50 mL polypropylene centrifuge tube in each amount shown in Table 10, followed by sealing and stirring, and then the mixture was reacted in an incubator at 37° C. for 42 days. Next, the reactant was filtered through a 0.2 μm filter and the obtained filtrate was used as a sample. Amino acid and carbohydrates used are as follows:
Using Luciferase Assay System (manufactured by Promega Corporation), evaluation of RAGE antagonist activity was performed. (Day 1) According to the methods disclosed in Diabetes, 2006, vol. 55, pp. 2510-2522, C6 glioma cells into which pNF-κB-Luc plasmid (manufactured by Stratagene Corporation) and human RAGE plasmid (including full-length human RAGE cDNA) have been introduced were seeded at 100 μL/well into a 96-well plate and cultured in a CO2 incubator until the cells were confluent. For the culture, 10% FBS/DMEM medium was used. (Day 2) The medium was removed, and after wells were washed with 300 μL of serum-free DMEM medium, 100 μL of 0.1% FBS/DMEM medium was slowly added. Then, the medium was incubated overnight in a CO2 incubator. (Day 3) The sample was diluted using the medium, and 50 μL of the diluted sample, AGE-BSA in which AGE was formed with glyceraldehydes (50 μg/mL) as a control, and the mixture of diluted sample and AGE-BSA were added to wells. After incubation in a CO2 incubator for 4 hours, the medium was removed and wells were washed 2 times with 300 μL of PBS (−). Then, 25 μL of 1× lysis buffer was added on ice. After the plate was shaken for 15 seconds, 20 μL of lysate was charged in a new white plate. Further 100 μL of a luciferase assay reagent was added, and a […] was measured by a luminometer. Using 5 μL of lysate, quantitative determination of protein was also performed.
(§2) Biological proteins, carbohydrates and a phosphate buffer solution are charged in a 50 mL polypropylene centrifuge tube in each amount shown in Table 12, followed by sealing and stirring, and then the mixture was reacted in an incubator at 37° C. for 42 days. Next, the reactant was fractionated by centrifugation at 3,000 rpm for 3 hours using an ultrafiltration unit (VIVA SPIN 20, manufactured by Sartorius Corporation). The obtained low molecular weight fraction was used as a sample for determination of 3-DG, while the obtained high molecular weight fraction was used as a sample for the determination of fluorescent AGEs, pentosidine, CML, RAGE agonist activity and RAGE antagonist activity. Biological proteins and carbohydrates used are as follows:
(§3) In the same manner as in Test Example 4, except that the low molecular weight fraction prepared as mentioned above was used as a sample, quantitative determination of 3-DG was performed. In the same manner as in Test Example 4, except that the high molecular weight fraction was filtered through a 0.2 μm filter and the filtrate was used as a sample, fluorescent AGEs, pentosidine, CML, RAGE agonist activity and RAGE antagonist activity were evaluated.
(§4) Collagen, carbohydrates and a phosphate buffer solution were charged in a 50 mL polypropylene centrifuge tube in each amount shown in Table 14, followed by sealing and stirring, and then the mixture was reacted in an incubator at 37° C. for 42 days. Next, the reactant was fractionated by centrifugation at 3,000 rpm for 3 hours using an ultrafiltration unit (VIVA SPIN 20, manufactured by Sartorius Corporation). The obtained low molecular weight fraction was used as a sample for determination of 3-DG. Meanwhile, 0.4 g of a high molecular weight fraction and 8 mL of 6N hydrochloric acid were charged in an ampule and the air in the ampule was replaced with nitrogen, and then hydrolysis was performed at 110° C. for 16 hours in a heat block. After reaction, 8 mL of 5N sodium hydroxide was added, and pH was adjusted using 1N hydrochloric acid and 1N sodium hydroxide to make pH within a range of 7.2 to 7.6. […]

human RAGE [2] = molecular target: T1, human RAGE; experiment: RAGE agonist activity of reaction samples (37° C., 42 days), NF-κB luciferase assay in C6 glioma cells; format: cell-based, rat
Procedure: as §1
Using Luciferase Assay System (manufactured by Promega Corporation), evaluation of RAGE agonist activity was performed. (Day 1) According to the methods disclosed in Diabetes, 2006, vol. 55, pp. 2510-2522, C6 glioma cells into which pNF-κB-Luc plasmid (manufactured by Stratagene Corporation) and human RAGE plasmid (including full-length human RAGE cDNA) have been introduced were seeded at 100 μL/well into a 96-well plate and cultured in a CO2 incubator until the cells were confluent. For the culture, 10% FBS/DMEM medium was used. (Day 2) The medium was removed, and after wells were washed with 300 μL of serum-free DMEM medium, 100 μL of 0.1% FBS/DMEM medium was slowly added. Then, the medium was incubated overnight in a CO2 incubator. (Day 3) The sample was diluted using the medium, and 50 μL of the diluted sample was added to each well. AGE-BSA in which AGE was formed with glyceraldehydes (50 μg/mL) was added to a control well. After incubation in a CO2 incubator for 4 hours, the medium was removed and wells were washed 2 times with 300 μL of PBS (−). Then, 25 μL of 1× lysis buffer was added on ice. After the plate was shaken for 15 seconds, 20 μL of lysate was charged in a new white plate. Further 100 μL of a luciferase assay reagent was added, and a […] was measured by a luminometer. Using 5 μl of lysate, quantitative determination of protein was also performed.
as §2, §3
as §4, with “7.6. Then, the solution was filtered through a 0.2 μm filter.” for “7.6.”

[3] = Test Example 4, amino acid + carbohydrate, mixture of sample and AGE-BSA, amount of protein 100 μg/mL, relative to control (AGE-BSA) = 1
[4] = Test Example 5, bovine serum albumin + carbohydrate, mixture of sample and AGE-BSA, protein 100 μg/mL, relative to control (AGE-BSA) = 1
[5] = Test Example 5, human serum albumin + carbohydrate, mixture of sample and AGE-BSA, protein 100 μg/mL, relative to control (AGE-BSA) = 1
[6] = Test Example 5, γ-globulin + carbohydrate, mixture of sample and AGE-BSA, protein 10 μg/mL, relative to control (AGE-BSA) = 1
[7] = Test Example 6, collagen + carbohydrate, mixture of sample and AGE-BSA, protein 10 μg/mL, relative to control (AGE-BSA) = 1
[8] = Test Example 4, amino acid + carbohydrate, amount of protein 100 μg/mL, relative to control (AGE-BSA) = 1
[9] = Test Example 5, bovine serum albumin + carbohydrate, protein 100 μg/mL, relative to control (AGE-BSA) = 1
[10] = Test Example 5, human serum albumin + carbohydrate, protein 100 μg/mL, relative to control (AGE-BSA) = 1
[11] = Test Example 5, γ-globulin + carbohydrate, protein 10 μg/mL, relative to control (AGE-BSA) = 1
[12] = Test Example 6, collagen + carbohydrate, protein 10 μg/mL, relative to control (AGE-BSA) = 1
[13] = Test Example 4, amino acid, compared with the test section 2 containing fructose
[14] = Test Example 5, bovine serum albumin, human serum albumin, γ-globulin, compared with sections containing glucose
[15] = Test Example 6, collagen, compared with sections containing glucose and fructose

T1 sequence (Q15109 23-404): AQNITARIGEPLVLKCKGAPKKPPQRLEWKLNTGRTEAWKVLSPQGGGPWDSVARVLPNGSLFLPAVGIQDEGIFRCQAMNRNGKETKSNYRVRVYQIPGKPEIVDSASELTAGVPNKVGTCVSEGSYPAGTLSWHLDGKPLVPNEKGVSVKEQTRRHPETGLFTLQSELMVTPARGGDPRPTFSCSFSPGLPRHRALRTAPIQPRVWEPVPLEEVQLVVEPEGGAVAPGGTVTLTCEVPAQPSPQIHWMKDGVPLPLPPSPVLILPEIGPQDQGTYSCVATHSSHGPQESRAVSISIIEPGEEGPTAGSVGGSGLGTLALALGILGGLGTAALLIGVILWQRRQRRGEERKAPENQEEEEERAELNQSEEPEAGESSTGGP

## O=C(CO)[C@@H](O)[C@H](O)[C@H](O)CO [Fructose]
Human RAGE [1]; [3]
  RAGE antagonist activity: 0.70
Human RAGE [1]; [4]
  RAGE antagonist activity: 1.15
Human RAGE [1]; [5]
  RAGE antagonist activity: 1.33
Human RAGE [1]; [6]
  RAGE antagonist activity: 1.08
Human RAGE [1]; [7]
  RAGE antagonist activity: 2.49
Human RAGE [2]; [8]
  RAGE agonist activity: 0.08
Human RAGE [2]; [9]
  RAGE agonist activity: 0.33
Human RAGE [2]; [10]
  RAGE agonist activity: 0.02
Human RAGE [2]; [11]
  RAGE agonist activity: 0.04
Human RAGE [2]; [12]
  RAGE agonist activity: 0.58

## O=C[C@H](O)[C@@H](O)[C@H](O)[C@H](O)CO [Glucose]
Human RAGE [1]; [3]
  RAGE antagonist activity: 0.56
Human RAGE [1]; [4]
  RAGE antagonist activity: 1.08
Human RAGE [1]; [5]
  RAGE antagonist activity: 1.20
Human RAGE [1]; [6]
  RAGE antagonist activity: 1.07
Human RAGE [1]; [7]
  RAGE antagonist activity: 2.85
Human RAGE [2]; [8]
  RAGE agonist activity: 0.06
Human RAGE [2]; [9]
  RAGE agonist activity: 0.37
Human RAGE [2]; [10]
  RAGE agonist activity: 0.01
Human RAGE [2]; [11]
  RAGE agonist activity: 0.06
Human RAGE [2]; [12]
  RAGE agonist activity: 0.45

## OC[C@@H](O)[C@@H](O)[C@H](O)[C@@H](O)CO [Sorbitol]
Human RAGE [1]; [3]
  RAGE antagonist activity: 0.66
Human RAGE [1]; [13]
  RAGE antagonist activity: decreased
Human RAGE [1]; [4]
  RAGE antagonist activity: 1.08
Human RAGE [1]; [14]
  RAGE antagonist activity: decreased
Human RAGE [1]; [5]
  RAGE antagonist activity: 1.01
Human RAGE [1]; Test Example 5, test sections 3 and 6 (bovine serum albumin, human serum albumin), compared with sections containing fructose
  RAGE antagonist activity: decreased
Human RAGE [1]; [6]
  RAGE antagonist activity: 0.90
Human RAGE [1]; [7]
  RAGE antagonist activity: 1.22
Human RAGE [1]; [15]
  RAGE antagonist activity: decreased
Human RAGE [2]; [8]
  RAGE agonist activity: 0.07
Human RAGE [2]; [13]
  RAGE agonist activity: decreased
Human RAGE [2]; [9]
  RAGE agonist activity: 0.24
Human RAGE [2]; Test Example 5, bovine serum albumin, human serum albumin, γ-globulin, compared with sections containing fructose
  RAGE agonist activity: decreased
Human RAGE [2]; [14]
  RAGE agonist activity: decreased
Human RAGE [2]; [10]
  RAGE agonist activity: 0.02
Human RAGE [2]; [11]
  RAGE agonist activity: 0.06
Human RAGE [2]; [12]
  RAGE agonist activity: 0.27
Human RAGE [2]; [15]
  RAGE agonist activity: decreased
